Experimental data taken from US20240366624A1, “METHODS AND COMPOSITIONS FOR TREATING THROMBOTIC DISEASE” (Washington University, priority 2023, published 2024).

Tests used:
[1] = test system: mouse platelets; experiment: Flow cytometry of P-selectin exposure and αIIbβ3 integrin activation, mouse platelets; format: cell-based; details: agonist-activated mouse platelets, concentration-dependent
Protocol: FIG. 10(A-E) is an exemplary embodiment of 15E9 not affecting platelet activation and aggregation in accordance with the present disclosure. Mouse platelets were treated with 0.02-0.03 (FIG. 10A P-selectin, FIG. 10B aIIbβ3) or 0.025 U/ml thrombin (FIG. 10C) in the presence of 10 μg/ml mouse IgG2a (IgG2a) or a blocking anti-ERO1α antibody (15E9). Flow cytometry (FIG. 10(A-B)) and aggregation (FIG. 10C) assays were performed. FIG. 10D: Human platelets were treated with 0.025 U/ml thrombin in the presence of mouse IgG2a (mIgG2a) or 10 μg/ml 15E9 and 16B6, followed by measuring aggregation. […] P values determined by unpaired Student's t-test (vs. mIgG1).
FIG. 18(A-R) is an exemplary embodiment of novel small-molecule inhibitors recapitulating the defect in Ero1α (endoplasmic reticulum oxidoreductase 1a)-null platelets in accordance with the present disclosure. […] After incubation with a different concentration of B12-5, the specific interaction between B12-5 and ERO1α was measured by subtracting the nonspecific binding. The KD value was calculated from the Kon and Koff values. […] P values determined by ANOVA and Dunnett test (FIG. 18(B-E), FIG. 18(1-L), and FIG. 18(O-R) [for B12-5]) or Student t test (FIG. 18M, FIG. 18N, and FIG. 18(O-R) [for BAPTA (1,2-bis(o-aminophenoxy)ethane-N,N,N′,N′-tetraacetic acid)]). […]

[2] = molecular target: PDI (Homo sapiens, UniProt P07237); experiment: PDI activity assay; format: biochemical
Chain of PDI (P07237 18-508, species assumed): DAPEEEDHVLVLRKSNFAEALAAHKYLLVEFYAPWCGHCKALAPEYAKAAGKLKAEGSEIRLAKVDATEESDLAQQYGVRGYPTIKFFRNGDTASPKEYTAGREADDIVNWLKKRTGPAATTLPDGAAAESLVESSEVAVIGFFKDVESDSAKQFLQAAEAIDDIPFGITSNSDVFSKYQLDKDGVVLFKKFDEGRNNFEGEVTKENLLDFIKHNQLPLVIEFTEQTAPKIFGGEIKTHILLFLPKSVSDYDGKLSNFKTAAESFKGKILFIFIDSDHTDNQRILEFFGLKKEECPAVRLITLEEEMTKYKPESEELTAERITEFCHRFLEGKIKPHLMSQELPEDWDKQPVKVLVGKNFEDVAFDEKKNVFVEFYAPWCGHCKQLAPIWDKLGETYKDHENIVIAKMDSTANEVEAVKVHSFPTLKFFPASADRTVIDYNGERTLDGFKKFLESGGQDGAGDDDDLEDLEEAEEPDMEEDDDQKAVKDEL
Excerpt: (§1) FIG. 17(A-F) is an exemplary embodiment of identification of novel ERO1α inhibitors by high throughput screening in accordance with the present disclosure. FIG. 17A: A scheme of an ERO1α activity assay. FIG. 17B: Screening of chemical libraries in the ERO1α activity assay. FIG. 17C: The inhibitory effect of selected compounds on ERO1α activity. FIG. 17D: The inhibitory effect of selected compounds on PDI activity. FIG. 17E: The inhibitory effect of selected compounds on H2O2 activity. FIG. 17F: The inhibitory effect of selected compounds on thiol-reacting activity. The data represent the mean±SD (n=3). *P<0.05, **P<0.01, ***P<0.001, and ****P<0.0001 vs. vehicle control, Student's t-test.
(§2) To identify a novel ERO1α inhibitor, 5800 compounds were screened using an ERO1α activity assay (FIG. 17A and FIG. 17B). […] The selected compounds were further tested in assays measuring PDI, antioxidant, and thiol-reacting activities (FIG. 17D through FIG. 17F). […] B12 inhibited P-selectin exposure and αIIbβ3 activation in agonist-activated mouse and human platelets in a concentration-dependent manner (FIG. 18B through FIG. 18E).

[3] = H2O2 (antioxidant) activity assay; format: biochemical
Excerpt: as §1, §2

[4] = molecular target: T1, ERO1α (Homo sapiens, UniProt Q96HE7); experiment: ERO1α activity assay; format: biochemical
T1 sequence (Q96HE7 24-468): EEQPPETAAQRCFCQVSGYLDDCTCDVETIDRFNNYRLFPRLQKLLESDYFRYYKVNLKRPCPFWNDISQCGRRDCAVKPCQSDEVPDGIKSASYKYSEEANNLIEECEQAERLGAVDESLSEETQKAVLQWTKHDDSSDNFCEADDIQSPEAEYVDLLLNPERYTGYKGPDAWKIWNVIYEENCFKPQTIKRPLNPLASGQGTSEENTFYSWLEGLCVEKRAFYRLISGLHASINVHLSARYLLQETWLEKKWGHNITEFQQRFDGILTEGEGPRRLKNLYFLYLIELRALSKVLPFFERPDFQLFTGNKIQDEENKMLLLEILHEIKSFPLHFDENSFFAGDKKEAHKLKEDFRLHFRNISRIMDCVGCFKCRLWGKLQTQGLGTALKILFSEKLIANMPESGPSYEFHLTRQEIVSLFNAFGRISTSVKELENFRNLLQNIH
Excerpt: as §1, §2

[5] = thiol-reacting (GSH) activity assay; format: biochemical
Excerpt: as §1, §2

[6] = molecular target: T2, MAO-A (monoamine oxidase A) (Homo sapiens, UniProt P21397); experiment: MAO-A activity assay; format: biochemical
T2 sequence (P21397 1-527): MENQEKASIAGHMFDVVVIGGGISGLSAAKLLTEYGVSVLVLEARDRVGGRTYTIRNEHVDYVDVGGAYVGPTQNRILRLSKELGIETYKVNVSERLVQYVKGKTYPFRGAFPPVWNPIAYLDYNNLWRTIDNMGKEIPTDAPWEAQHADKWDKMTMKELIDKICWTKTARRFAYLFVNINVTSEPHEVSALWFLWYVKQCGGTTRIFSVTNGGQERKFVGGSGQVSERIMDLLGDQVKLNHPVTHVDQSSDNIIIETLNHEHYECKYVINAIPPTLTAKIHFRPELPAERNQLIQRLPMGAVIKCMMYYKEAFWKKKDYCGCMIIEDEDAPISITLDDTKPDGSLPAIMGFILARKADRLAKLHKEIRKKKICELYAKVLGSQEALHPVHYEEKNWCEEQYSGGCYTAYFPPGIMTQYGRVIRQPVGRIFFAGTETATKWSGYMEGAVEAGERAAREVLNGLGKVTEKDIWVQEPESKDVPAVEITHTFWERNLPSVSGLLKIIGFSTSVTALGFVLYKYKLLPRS

[7] = test system: human platelets; experiment: Flow cytometry of P-selectin exposure and αIIbβ3 integrin activation, human platelets; format: cell-based; details: agonist-activated human platelets, concentration-dependent
Excerpt: FIG. 18(A-R) is an exemplary embodiment of novel small-molecule inhibitors recapitulating the defect in Ero1α (endoplasmic reticulum oxidoreductase 1a)-null platelets in accordance with the present disclosure. FIG. 18A: The structure of B12 and its inhibitory effect on ERO1α activity. FIG. 18(B-E): The inhibitory effect of B12 on P-selectin exposure and αIIbβ3 integrin activation in (FIG. 18B and FIG. 18C) mouse and (FIG. 18D and FIG. 18E) human platelets. FIG. 18F: The structure of B12-5 and its inhibitory effect on ERO1α activity. FIG. 18G: A docking model of B12-5-ERO1α (3AHQ) and flavin adenine dinucleotide (FAD)-ERO1α complex. There are pi-sulfur interactions of the phenothiazine head group (B112-5) or a tricyclic ring (FAD) with Met389 and Cys397. Also, there are H bond interactions between the tail/alkyl group and His255, Asn259, and Arg287. […] After incubation with a different concentration of B12-5, the specific interaction between B12-5 and ERO1α was measured by subtracting the nonspecific binding. The KD value was calculated from the Kon and Koff values. […] P values determined by ANOVA and Dunnett test (FIG. 18(B-E), FIG. 18(1-L), and FIG. 18(O-R) [for B12-5]) or Student t test (FIG. 18M, FIG. 18N, and FIG. 18(O-R) [for BAPTA (1,2-bis(o-aminophenoxy)ethane-N,N,N′,N′-tetraacetic acid)]). […]

## O=C(CSc1nc(O)c2nc[nH]c2n1)N1c2ccccc2Sc2ccccc21 [B12]
[1]
  P-selectin exposure and αIIbβ3 activation: inhibited
[2]
  inhibition at 100 µM: 4.8 ± 1%
[2]; at or up to 100 μM
  effect on PDI activity: without affecting
[3]; 100 μM
  H2O2 inhibition at 100 μM (%): 4.7 ± 1%
[3]; at or up to 100 μM
  effect on H2O2 (antioxidant) activity: without affecting
[4]
  inhibition at 20 µM: 72.9 ± 12%
[4]; read-out: IC50, ERO1α activity
  IC50: 12.4 µM
[5]; 100 μM
  GSH inhibition at 100 μM (%): 5.1 ± 2%
[5]; at or up to 100 μM
  effect on thiol-reacting activity: without affecting
[6]
  inhibition at 100 µM: 25.3 ± 5%
[7]
  P-selectin exposure and αIIbβ3 activation: inhibited
